Assay results: patent US7932262B2 (Novartis AG, priority 2006, dated 2011)

Key:
[1] = system: A2780 cells; test: Cell Proliferation Assay (Cell Titer Glo), A2780; format: cell-based; conditions: Homo sapiens, 72 h; A2780 cells, 3 days incubation; read-out: CPEC50 A2780
How it was run: (§1)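 Following a 3-day compound exposure (37° C., 5% CO2) of A2780 or PC3MM cells plated at 1000 per well, viability was measured by Cell Titer Glo luminescence in fresh medium, read 10 min after reagent addition.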

[2] = target: T1, PDK1 kinase (Homo sapiens, UniProt O15530); test: PDK1 Kinase Alpha Screen Assay; format: biochemical; conditions: read-out: PDK1 IC50
T1 sequence (O15530 1-556): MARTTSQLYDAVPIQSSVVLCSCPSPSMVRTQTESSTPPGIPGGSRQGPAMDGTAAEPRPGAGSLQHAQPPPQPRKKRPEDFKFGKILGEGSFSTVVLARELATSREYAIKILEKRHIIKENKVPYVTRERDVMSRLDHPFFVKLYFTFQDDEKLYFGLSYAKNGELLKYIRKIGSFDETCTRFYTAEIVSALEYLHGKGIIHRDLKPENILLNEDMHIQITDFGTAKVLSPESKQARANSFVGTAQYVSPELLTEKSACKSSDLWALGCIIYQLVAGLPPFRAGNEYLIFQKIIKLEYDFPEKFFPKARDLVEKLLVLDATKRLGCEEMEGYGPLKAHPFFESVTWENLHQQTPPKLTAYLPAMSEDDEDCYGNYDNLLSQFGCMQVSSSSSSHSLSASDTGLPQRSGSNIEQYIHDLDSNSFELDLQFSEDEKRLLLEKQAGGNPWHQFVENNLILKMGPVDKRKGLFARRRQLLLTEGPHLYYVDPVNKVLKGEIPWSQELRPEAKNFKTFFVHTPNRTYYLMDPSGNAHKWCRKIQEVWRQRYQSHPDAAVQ
How it was run: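 Kinase inhibition measured as loss of AlphaScreen signal from antibody recognition of phosphorylated biotin-PDK1-4 peptide. Reactions contain 10 uM ATP and 50 nM peptide, run 3-18 hours before EDTA quench and overnight bead development at room temperature.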

[3] = system: PC-3 cells; test: Cell Proliferation Assay (Cell Titer Glo), PC-3 cell line; format: cell-based; conditions: Homo sapiens, PC-3, 72 h, PC-3 cells, 3 days incubation; read-out: CP EC50 PC3
How it was run: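 Cell Titer Glo luminescence, read after fresh medium replaced the dosing medium, gave viability of PC-3 cells plated at 1000 cells/well. Compounds, 1:3 serially diluted in DMSO at 500× and then in medium, were added after 3-5 h adhesion and incubated 3 days at 37° C.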

[4] = system: pAkt308 (phosphorylation of Akt at T308) in PC-3 cells; test: pAkt T308 ECL Assay in PC-3 cells; format: cell-based; conditions: Homo sapiens, 6 h, six hours with compound, read-out: PAKT308 PC3 IC50
Description: VI. The pAkt^T308 ECL Assay Protocol
On Day 1, PC-3 cells were seeded at 15,000 cells/well in 100 μL/well ([…]) growth media into black-walled, clear bottom, poly-L-lysine coated plates. The cells were incubated overnight in a 37° C., 5% CO2 incubator.
On Day 2, a MSD ECL plate was blocked for two hours with 150 μL per well of 3% MSD blocker A.
Test compounds were diluted to 500× in DMSO and then were subjected to further serial dilution using a BioMek 2000 instrument. DMSO diluted compounds were then diluted into growth media and then added to the cell plates.
The cell plates incubated with compounds for six hours in a 37° C., 5% CO2 incubator after which the growth medium was removed and 55 μl of MSD lysis buffer was added to cell plates on ice. The plates were lysed on ice for five minutes followed by 15 minutes of vigorous shaking on a plate shaker at 4° C. The blocked MSD assay plates were washed twice with 1×MSD wash buffer followed by the addition of cell lysate as follows: 30 μl of cell lysate was added to the pAkt308 plates and 13 μl of lysate+12 μl lysis buffer was added to the tAkt plates. The plates were then sealed and shaken at 4° C. overnight.
On Day 3, the MSD plates were washed four times with 1×MSD wash buffer then, 25 μl/well of MSD SULFO-TAG antibodies diluted to 10 nM final concentration in 1% blocker. A buffer was added to the antibody diluent which was added to assay plates. The plates were then sealed and incubated at RT for 1.5 hour. The plates were then washed twice with 1×MSD wash buffer followed by the addition of 150 μl/well of 1.5×MSD read buffer. The plates were read immediately after the addition of read buffer using a Trilux instrument. […]

[5] = system: PC3MM cells; test: Cell Proliferation Assay (Cell Titer Glo), PC3MM; format: cell-based; conditions: 72 h; PC3MM cells, 3 days incubation; read-out: CP EC50 PC3MM
How it was run: as §1

EC50 [1]	IC50 [2]	EC50 [3]	IC50 [4]	EC50 [5]	SMILES
< 5 µM	< 5 µM	< 5 µM	5 to 10 µM		O=S(=O)(NCCN1CCCC1)c1ccc(Nc2ncc3cccc(OC4CCNCC4)c3n2)cc1 [Compound 14, 4-[8-(Piperidin-4-yl-oxy)-quinazolin-2-ylamino]-N-(2-pyrrolidin-1-yl-ethyl)-benzenesulfonamide]
< 5 µM	< 5 µM	< 5 µM	< 5 µM		NS(=O)(=O)c1ccc(Nc2ncc3cccc(OC4CCNCC4)c3n2)cc1 [Compound 31, 4-[8-(Piperidin-4-yloxy)-quinazolin-2-ylamino]-benzenesulfonamide]
< 5 µM	< 5 µM	< 5 µM	< 5 µM		CC(C)N1CCC(Oc2cccc3cnc(Nc4ccc(S(N)(=O)=O)cc4)nc23)CC1 [Compound 36, 4-[8-(1-Isopropyl-piperidin-4-yloxy)-quinazolin-2-ylamino]-benzenesulfonamide]
< 5 µM	< 5 µM	< 5 µM	< 5 µM		CC(C)N1CCC(Oc2ccc3cnc(Nc4ccc(S(N)(=O)=O)cc4)nc3c2)CC1 [Compound 42, 4-[7-(l-Isopropyl-piperidin-4-yloxy)-quinazolin-2-ylamino]-benzenesulfonamide]
< 5 µM	< 5 µM	< 5 µM	< 5 µM		CC(C)NC(=O)c1ccc(Nc2ncc3cccc(OC4CCN(C(C)C)CC4)c3n2)cc1 [Compound 44, N-Isopropyl-4-[8-(1-isopropyl-piperidin-4-yloxy)-quinazolin-2-ylamino]-benzamide]
< 5 µM	< 5 µM	< 5 µM	< 5 µM		CC(C)CN1CCC(Oc2cccc3cnc(Nc4ccc(S(N)(=O)=O)cc4)nc23)CC1 [Compound 45, 4-[8-(1-Isobutyl-piperidin-4-yloxy)-quinazolin-2-ylamino]-benzenesulfonamide]
< 5 µM	< 5 µM	< 5 µM	< 5 µM		NS(=O)(=O)c1ccc(Nc2ncc3ccc(OC4CCNCC4)cc3n2)cc1 [Compound 51, 4-[7-(Piperidin-4-yloxy)-quinazolin-2-ylamino]-benzenesulfonamide]
< 5 µM	< 5 µM	< 5 µM	< 5 µM	< 5 µM	CN1CCC(Oc2ccc3cnc(Nc4ccc(S(N)(=O)=O)cc4)nc3c2)CC1 [Compound 52, 4-[7-(1-Methyl-piperidin 4-yloxy)-quinazolin-2-ylamino]-benzenesulfonamide]
< 5 µM	< 5 µM	< 5 µM	< 5 µM		CN1CCC(Oc2ccc3cnc(Nc4ccc(S(=O)(=O)N5CCOCC5)cc4)nc3c2)CC1 [Compound 53, [7-(1-Methyl-piperidin-4-yloxy)-quinazolin-2-yl]-[4-(morpholine-4-sulfonyl)-phenyl]-amine]
< 5 µM	< 5 µM	< 5 µM	< 5 µM		NS(=O)(=O)c1ccc(Nc2ncc3ccc(-c4ccccc4)c(OC4CCNCC4)c3n2)cc1 [Compound 67, 4-[7-Phenyl-8-(piperidin-4-yloxy)-quinazolin-2-ylamino]-benzenesulfonamide]
< 5 µM	< 5 µM	< 5 µM	< 5 µM		CC(C)N1CCC(c2c(O)ccc3cnc(Nc4ccc(S(N)(=O)=O)cc4)nc23)CC1 [Compound 134, 4-[7-Hydroxy-8-(1-isopropyl-piperidin-4-yl)-quinazolin-2-ylamino]-benzenesulfonamide]
< 5 µM	< 5 µM	< 5 µM	< 5 µM		Cn1cc(-c2ccc3cnc(Nc4ccc(S(N)(=O)=O)cc4)nc3c2)cn1 [Compound 136, 4-[7-(1-Methyl-1H-pyrazol-4-yl)-quinazolin-2-ylamino]-benzenesulfonamide]
< 5 µM	< 5 µM	< 5 µM	< 5 µM		NS(=O)(=O)c1ccc(Nc2ncc3ccc(-c4cccnc4F)cc3n2)cc1 [Compound 137, 4-[7-(2-Fluoro-pyridin-3-yl)-quinazolin-2-ylamino]-benzenesulfonamide]

SMILES	EC50 [1]	IC50 [2]	EC50 [3]	IC50 [4]	EC50 [5]
NS(=O)(=O)c1ccc(Nc2ncc3cccc(O[C@@H]4CN5CCC4CC5)c3n2)cc1 [Compound 40, 4-[8-((S)-3-quinuclidinyloxy)-quinazolin-2-ylamino]-benzenesulfonamide]	< 5 µM	< 5 µM	< 5 µM	< 5 µM	
CN1C2CCC1CC(Oc1cccc3cnc(Nc4ccc(S(N)(=O)=O)cc4)nc13)C2 (stereo not shown) [Compound 41, 4-[8-(8-Methyl-8-aza-bicyclo[3.2.1]oct-3-yloxy)-quinazolin-2-ylamino]-benzenesulfonamide]	< 5 µM	< 5 µM	< 5 µM	< 5 µM	
